Results reported in publication PMC10866072, “Design, synthesis, molecular modelling and biological evaluation of novel 6-amino-5-cyano-2-thiopyrimidine derivatives as potent anticancer agents against leukemia and apoptotic inducers” (Journal of Enzyme Inhibition and Medicinal Chemistry, 2024).

Tests used:
SK-OV-3 = format: cell-based; conditions: Homo sapiens, one dose 10^-5 M, 48 h
HCC-2998 = format: cell-based; conditions: Homo sapiens, one dose 10^-5 M, 48 h
RXF 393 = format: cell-based; conditions: Homo sapiens, RXF 393, 48 h, one dose 10^-5 M, 48 h, read-out: % growth
SK-MEL-28 = format: cell-based; conditions: Homo sapiens, one dose 10^-5 M, 48 h
U251 = format: cell-based; conditions: Homo sapiens, U-251, one dose 10^-5 M, 48 h
MOLT-4 = format: cell-based; conditions: Homo sapiens, one dose 10^-5 M, 48 h, read-out: % growth
HT29 = format: cell-based; conditions: Homo sapiens, HT-29, one dose 10^-5 M, 48 h
TK-10 = format: cell-based; conditions: Homo sapiens, one dose 10^-5 M, 48 h
A498 = format: cell-based; conditions: Homo sapiens, one dose 10^-5 M, 48 h
SF-295 = format: cell-based; conditions: Homo sapiens, one dose 10^-5 M, 48 h
SN12C = format: cell-based, human; conditions: Homo sapiens, one dose 10^-5 M, 48 h
HOP-62 = format: cell-based; conditions: Homo sapiens, one dose 10^-5 M, 48 h
SW-620 = format: cell-based; conditions: Homo sapiens, one dose 10^-5 M, 48 h
SF-539 = format: cell-based; conditions: Homo sapiens, one dose 10^-5 M, 48 h
DU-145 = format: cell-based; conditions: Homo sapiens, one dose 10^-5 M, 48 h
KM12 = format: cell-based; conditions: Homo sapiens, one dose 10^-5 M, 48 h
K-562 = format: cell-based; conditions: Homo sapiens, K562, one dose 10^-5 M, 48 h
OVCAR-4 = format: cell-based; conditions: Homo sapiens, one dose 10^-5 M, 48 h
CAKI-1 = format: cell-based; conditions: Homo sapiens, CAKI-1, 48 h, one dose 10^-5 M, 48 h
UACC-62 = format: cell-based; conditions: Homo sapiens, one dose 10^-5 M, 48 h
MDA-MB-435 = format: cell-based; conditions: Homo sapiens, one dose 10^-5 M, 48 h, read-out: % growth
MALME-3M = format: cell-based; conditions: Homo sapiens, one dose 10^-5 M, 48 h
IGROV1 = format: cell-based; conditions: Homo sapiens, IGROV-1, one dose 10^-5 M, 48 h, read-out: % growth
CCRF-CEM = format: cell-based; conditions: Homo sapiens, one dose 10^-5 M, 48 h
HOP-92 = format: cell-based; conditions: Homo sapiens, one dose 10^-5 M, 48 h
SK-MEL-5 = format: cell-based; conditions: Homo sapiens, one dose 10^-5 M, 48 h, read-out: % growth
HL-60(TB) = format: cell-based; conditions: Homo sapiens, one dose 10^-5 M, 48 h
RPMI-8226 = format: cell-based; conditions: Homo sapiens, one dose 10^-5 M, 48 h
HCT-116 = format: cell-based; conditions: Homo sapiens, one dose 10^-5 M, 48 h, read-out: % growth
OVCAR-3 = format: cell-based; conditions: Homo sapiens, one dose 10^-5 M, 48 h
PC-3 = format: cell-based; conditions: Homo sapiens, one dose 10^-5 M, 48 h
SNB-19 = format: cell-based; conditions: Homo sapiens, one dose 10^-5 M, 48 h, read-out: % growth
SNB-75 = format: cell-based; conditions: Homo sapiens, one dose 10^-5 M, 48 h
T-47D = format: cell-based; conditions: Homo sapiens, T47D, one dose 10^-5 M, 48 h, read-out: % growth
NCI-H226 = format: cell-based; conditions: Homo sapiens, one dose 10^-5 M, 48 h
NCI-H522 = format: cell-based; conditions: Homo sapiens, one dose 10^-5 M, 48 h
HS 578T = format: cell-based; conditions: Homo sapiens; one dose 10^-5 M, 48 h; HS 578T; read-out: % growth
MDA-MB-231/ATCC = format: cell-based; conditions: Homo sapiens, one dose 10^-5 M, 48 h
OVCAR-8 = format: cell-based; conditions: Homo sapiens, one dose 10^-5 M, 48 h
NCI-H23 = format: cell-based; conditions: Homo sapiens, one dose 10^-5 M, 48 h, read-out: % growth
[1] = system: full NCI 60 cell lines panel; conditions: for activity at 10 µM: Homo sapiens, 60 cell, 48 h, read-out: Mean % growth; for activity on all 60 cancer cell lines tested (in words): one dose
SK-MEL-2 = format: cell-based; conditions: Homo sapiens, one dose 10^-5 M, 48 h
SR = format: cell-based; conditions: Homo sapiens, one dose 10^-5 M, 48 h
SF-268 = format: cell-based; conditions: Homo sapiens, one dose 10^-5 M, 48 h, read-out: % growth
NCI-H460 = format: cell-based; conditions: Homo sapiens, one dose 10^-5 M, 48 h, read-out: % growth
786-0 = format: cell-based; conditions: Homo sapiens, one dose 10^-5 M, 48 h
UO-31 = format: cell-based; conditions: Homo sapiens, UO-31, 48 h, one dose 10^-5 M, 48 h
ACHN = format: cell-based; conditions: Homo sapiens, one dose 10^-5 M, 48 h
LOX IMVI = format: cell-based; conditions: Homo sapiens, one dose 10^-5 M, 48 h, read-out: % growth
OVCAR-5 = format: cell-based; conditions: Homo sapiens, one dose 10^-5 M, 48 h
EKVX = format: cell-based; conditions: Homo sapiens, one dose 10^-5 M, 48 h
MDA-MB-468 = format: cell-based; conditions: Homo sapiens, one dose 10^-5 M, 48 h
HCT-15 = format: cell-based; conditions: Homo sapiens, one dose 10^-5 M, 48 h, read-out: % growth
M14 = format: cell-based; conditions: Homo sapiens, one dose 10^-5 M, 48 h
MCF7 = format: cell-based; conditions: Homo sapiens, one dose 10^-5 M, 48 h, read-out: % growth
A549/ATCC = format: cell-based; conditions: Homo sapiens, one dose 10^-5 M, 48 h
UACC-257 = format: cell-based; conditions: Homo sapiens, one dose 10^-5 M, 48 h

N=C(NN=Cc1ccc([N+](=O)[O-])cc1)c1c(N)nc(S)nc1-c1ccc(Cl)cc1 [Compound 4i, 4-amino-6–(4-chlorophenyl)-2-mercapto-N'-[(4-nitrophenyl)methylene] pyrimidine-5-carboximidohydrazide]
% growth at 10 µM (SK-OV-3): 103%
% growth at 10 µM (HCC-2998): 104%
activity at 10 µM (RXF 393): 108%
% cell growth at 10 µM (SK-MEL-28): 101%
% growth at 10 µM (U251): 98.8%
activity at 10 µM (MOLT-4): 105%
% growth at 10 µM (HT29): 101%
% cell growth at 10 µM (TK-10): 112%
% growth at 10 µM (A498): 114%
% cell growth at 10 µM (SF-295): 96.7%
% growth at 10 µM (SN12C): 92.6%
% growth at 10 µM (HOP-62): 95%
% growth at 10 µM (SW-620): 102%
% growth at 10 µM (SF-539): 96.7%
% growth at 10 µM (DU-145): 108%
% growth at 10 µM (KM12): 99.2%
% growth at 10 µM (K-562): 96.3%
% growth at 10 µM (OVCAR-4): 98.6%
% growth at 10 µM (CAKI-1): 89.6%
% growth at 10 µM (UACC-62): 94.6%
activity at 10 µM (MDA-MB-435): 101%
% growth at 10 µM (MALME-3M): 96.9%
activity at 10 µM (IGROV1): 99.4%
% cell growth at 10 µM (CCRF-CEM): 88.6%
% growth at 10 µM (HOP-92): 97%
activity at 10 µM (SK-MEL-5): 101%
% growth at 10 µM (HL-60(TB)): 97.3%
% growth at 10 µM (RPMI-8226): 89%
activity at 10 µM (HCT-116): 108%
% growth at 10 µM (OVCAR-3): 119%
percent cell growth at 10 µM (PC-3): 90.1%
activity at 10 µM (SNB-19): 94.2%
% growth at 10 µM (SNB-75): 115%
activity at 10 µM (T-47D): 90.5%
% growth at 10 µM (NCI-H226): 150%
% growth at 10 µM (NCI-H522): 92.9%
activity at 10 µM (HS 578T): 118%
% growth at 10 µM (MDA-MB-231/ATCC): 96%
% growth of cells at 10 µM (OVCAR-8): 105%
activity at 10 µM (NCI-H23): 106%
activity at 10 µM [1]: 101%
activity on all 60 cancer cell lines tested (in words) [1]: weak activity
% growth at 10 µM (SK-MEL-2): 108%
percent cell growth at 10 µM (SR): 96.5%
activity at 10 µM (SF-268): 117%
activity at 10 µM (NCI-H460): 104%
% growth at 10 µM (786-0): 103%
% cell growth at 10 µM (UO-31): 91%
% growth at 10 µM (ACHN): 92.1%
activity at 10 µM (LOX IMVI): 106%
percent cell growth at 10 µM (OVCAR-5): 101%
% cell growth at 10 µM (EKVX): 95.8%
percent cell growth at 10 µM (MDA-MB-468): 114%
activity at 10 µM (HCT-15): 95.2%
% growth at 10 µM (M14): 107%
activity at 10 µM (MCF7): 90.7%
% growth at 10 µM (A549/ATCC): 103%
percent cell growth at 10 µM (UACC-257): 96.5%

COc1ccc(C=NNC(=N)c2c(N)nc(S)nc2-c2ccc(Cl)cc2)cc1 [Compound 4j, 4-amino-6–(4-chlorophenyl)-2-mercapto-N'-[(4-methoxyphenyl)methylene] pyrimidine-5-carboximidohydrazide]
% growth at 10 µM (SK-OV-3): 93.7%
% growth at 10 µM (HCC-2998): 113%
activity at 10 µM (RXF 393): 124%
% cell growth at 10 µM (SK-MEL-28): 111%
% growth at 10 µM (U251): 107%
activity at 10 µM (MOLT-4): 101%
% growth at 10 µM (HT29): 105%
% cell growth at 10 µM (TK-10): 143%
% growth at 10 µM (A498): 125%
% cell growth at 10 µM (SF-295): 97.5%
% growth at 10 µM (SN12C): 93.6%
% growth at 10 µM (HOP-62): 90.3%
% growth at 10 µM (SW-620): 112%
% growth at 10 µM (SF-539): 101%
% growth at 10 µM (DU-145): 118%
% growth at 10 µM (KM12): 100%
% growth at 10 µM (K-562): 95%
% growth at 10 µM (OVCAR-4): 99.6%
% growth at 10 µM (CAKI-1): 91.9%
% growth at 10 µM (UACC-62): 92.9%
activity at 10 µM (MDA-MB-435): 104%
% growth at 10 µM (MALME-3M): 105%
activity at 10 µM (IGROV1): 91.5%
% cell growth at 10 µM (CCRF-CEM): 89.7%
% growth at 10 µM (HOP-92): 107%
activity at 10 µM (SK-MEL-5): 102%
% growth at 10 µM (HL-60(TB)): 111%
% growth at 10 µM (RPMI-8226): 91.2%
activity at 10 µM (HCT-116): 107%
% growth at 10 µM (OVCAR-3): 110%
percent cell growth at 10 µM (PC-3): 82.6%
activity at 10 µM (SNB-19): 90.5%
% growth at 10 µM (SNB-75): 103%
activity at 10 µM (T-47D): 86.8%
% growth at 10 µM (NCI-H226): 125%
% growth at 10 µM (NCI-H522): 101%
activity at 10 µM (HS 578T): 107%
% growth at 10 µM (MDA-MB-231/ATCC): 91.3%
% growth of cells at 10 µM (OVCAR-8): 101%
activity at 10 µM (NCI-H23): 103%
activity at 10 µM [1]: 103%
activity on all 60 cancer cell lines tested (in words) [1]: weak activity
% growth at 10 µM (SK-MEL-2): 110%
percent cell growth at 10 µM (SR): 97.3%
activity at 10 µM (SF-268): 113%
activity at 10 µM (NCI-H460): 119%
% growth at 10 µM (786-0): 104%
% cell growth at 10 µM (UO-31): 77.5%
% growth at 10 µM (ACHN): 97.4%
activity at 10 µM (LOX IMVI): 104%
percent cell growth at 10 µM (OVCAR-5): 102%
% cell growth at 10 µM (EKVX): 94.8%
percent cell growth at 10 µM (MDA-MB-468): 114%
activity at 10 µM (HCT-15): 95.6%
% growth at 10 µM (M14): 109%
activity at 10 µM (MCF7): 86.6%
% growth at 10 µM (A549/ATCC): 107%
percent cell growth at 10 µM (UACC-257): 110%
